From ChEMBL document CHEMBL2073943, “Effect of the flavonoids biochanin A and silymarin on the P-glycoprotein-mediated transport of digoxin and vinblastine in human intestinal Caco-2 cells” (Pharm Res, 2003)

How the values were obtained:
Assay type in all cases: functional, cell-based
[1] = target: T1, ATP-dependent translocase ABCB1 (Homo sapiens, UniProt P08183); assay: TP_TRANSPORTER: increase in […] intracellular accumulation (VBL: 27nM, biochanin A: 150 uM) in Caco-2 cells; conditions: caco-2, 150 µM
[2] = target: T1, ATP-dependent translocase ABCB1; assay: TP_TRANSPORTER: increase in digoxin intracellular accumulation (digoxin: 11nM, biochanin A: 150 uM) in Caco-2 cells; conditions: caco-2, 150 µM
[3] = target: T1, ATP-dependent translocase ABCB1; assay: TP_TRANSPORTER: increase in digoxin intracellular accumulation (digoxin: 11nM, silymarin: 100 uM) in Caco-2 cells; conditions: caco-2, 100 µM
[4] = target: T1, ATP-dependent translocase ABCB1; assay: TP_TRANSPORTER: increase in […] intracellular accumulation (VBL: 27nM, silymarin: 100 uM) in Caco-2 cells; conditions: caco-2, 100 µM

T1 sequence (P08183 whole entry): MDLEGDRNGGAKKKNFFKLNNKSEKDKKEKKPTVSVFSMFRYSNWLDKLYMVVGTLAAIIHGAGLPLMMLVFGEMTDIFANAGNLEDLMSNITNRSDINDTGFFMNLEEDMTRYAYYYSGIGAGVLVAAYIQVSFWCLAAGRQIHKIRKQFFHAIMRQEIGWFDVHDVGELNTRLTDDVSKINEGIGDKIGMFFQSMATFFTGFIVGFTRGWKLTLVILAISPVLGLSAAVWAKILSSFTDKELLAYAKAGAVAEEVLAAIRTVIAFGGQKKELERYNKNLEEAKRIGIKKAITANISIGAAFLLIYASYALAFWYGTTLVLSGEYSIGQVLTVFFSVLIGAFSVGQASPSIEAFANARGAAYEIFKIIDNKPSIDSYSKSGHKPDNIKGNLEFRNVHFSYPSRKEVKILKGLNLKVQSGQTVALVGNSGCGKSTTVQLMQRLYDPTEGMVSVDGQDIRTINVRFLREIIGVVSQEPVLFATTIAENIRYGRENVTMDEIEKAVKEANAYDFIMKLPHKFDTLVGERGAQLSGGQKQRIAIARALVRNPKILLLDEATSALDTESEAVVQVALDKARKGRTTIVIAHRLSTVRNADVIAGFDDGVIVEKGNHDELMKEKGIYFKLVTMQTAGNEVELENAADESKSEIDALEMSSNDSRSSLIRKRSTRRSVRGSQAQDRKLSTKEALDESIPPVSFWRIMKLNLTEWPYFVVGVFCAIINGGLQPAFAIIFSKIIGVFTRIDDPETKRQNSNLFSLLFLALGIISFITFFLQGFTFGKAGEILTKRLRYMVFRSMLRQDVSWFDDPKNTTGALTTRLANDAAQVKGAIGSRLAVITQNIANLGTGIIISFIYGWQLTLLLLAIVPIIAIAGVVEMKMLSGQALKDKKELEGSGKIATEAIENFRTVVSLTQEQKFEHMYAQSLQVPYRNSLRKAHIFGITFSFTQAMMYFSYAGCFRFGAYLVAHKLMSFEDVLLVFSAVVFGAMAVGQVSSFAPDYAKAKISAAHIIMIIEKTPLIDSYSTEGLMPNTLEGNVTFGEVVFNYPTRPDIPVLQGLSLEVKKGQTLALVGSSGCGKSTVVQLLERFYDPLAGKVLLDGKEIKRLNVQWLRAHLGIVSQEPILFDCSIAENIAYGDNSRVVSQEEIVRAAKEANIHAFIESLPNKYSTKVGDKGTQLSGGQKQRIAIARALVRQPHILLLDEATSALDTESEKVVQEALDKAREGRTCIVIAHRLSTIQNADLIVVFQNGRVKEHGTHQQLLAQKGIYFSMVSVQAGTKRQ

Molecule	Activity [1]	Activity [2]	Activity [3]	Activity [4]
COc1ccc(-c2coc3cc(O)cc(O)c3c2=O)cc1 [BIOCHANIN]	inhibitor [+]	inhibitor [+]	–	–
SILYMARIN	–	–	inhibitor [+]	inhibitor [+]
